Laboratory results reported in patent US20220313698A1, “MODULATORS OF CYSTIC FIBROSIS TRANSMEMBRANE CONDUCTANCE REGULATOR” (Vertex Pharmaceuticals Incorporated, priority 2019, published 2022).

Target: CFTR-mediated chloride transport (Homo sapiens, UniProt P13569)
Assay: Corrector Assay A - membrane potential dye assay (enteroid cells)
Settings: for Corrector Assay A % activity: % of chloride transport of triple combination control (1 μM (14S)-dispiro macrocycle + 3 μM tezacaftor + 300 nM ivacaftor); for EC50: read-out: Corrector Assay A EC50, human intestinal enteroid cells, 18-24 h incubation, acute 10 μM forskolin + 300 nM ivacaftor

## CN1CCN(c2cccc([C@@H]3CC[C@@H]4CN(c5nc(C(C)(C)C)ccc5C(=O)NS(=O)(=O)c5cccc(n5)N3)C(C)(C)C4)n2)CC1 [Compound 194]
  Corrector Assay A % activity: ++ (++ is 30-60%)
  EC50: < 1000 nM

## CN1CCN(c2cccc([C@H]3CC[C@@H]4CN(c5nc(C(C)(C)C)ccc5C(=O)NS(=O)(=O)c5cccc(n5)N3)C(C)(C)C4)n2)CC1 [Compound 195, (14S,17R)-8-tert-butyl-12,12-dimethyl-17-[6-(4-methylpiperazin-1-yl)pyridin-2-yl]-2λ^6-thia-3,9,11,18,23-pentaazatetracyclo[17.3.1.111,14.05,10]tetracosa-1(22),5,7,9,19(23),20-hexaene-2,2,4-trione]
  Corrector Assay A % activity: +++ (+++ is >60%)
  EC50: < 1000 nM

## CC(C)(C)c1ccc2c(n1)N1C[C@@H](CCC(c3ccc(CN)cn3)Nc3cccc(n3)S(=O)(=O)NC2=O)CC1(C)C (stereo partly drawn) [Compound 196]
  Corrector Assay A % activity: +++ (+++ is >60%)
  EC50: < 1000 nM

## CC(C)(C)c1ccc2c(n1)N1C[C@@H](CCC(c3ccc(N4CCOCC4)cn3)Nc3cccc(n3)S(=O)(=O)NC2=O)CC1(C)C (stereo partly drawn) [Compound 198]
  Corrector Assay A % activity: +++ (+++ is >60%)
  EC50: < 1000 nM

## CC(C)(C)c1ccc2c(n1)N1C[C@@H](CCC(c3ccc(N4CCOCC4)cn3)Nc3cccc(n3)S(=O)(=O)NC2=O)CC1(C)C (stereo partly drawn) [Compound 199]
  Corrector Assay A % activity: +++ (+++ is >60%)
  EC50: < 1000 nM

## CN1CCN(c2ccc(C3CC[C@@H]4CN(c5nc(C(C)(C)C)ccc5C(=O)NS(=O)(=O)c5cccc(n5)N3)C(C)(C)C4)nc2)CC1 (stereo partly drawn) [Compound 200]
  Corrector Assay A % activity: +++ (+++ is >60%)
  EC50: < 1000 nM

## CN1CCN(c2ccc(C3CC[C@@H]4CN(c5nc(C(C)(C)C)ccc5C(=O)NS(=O)(=O)c5cccc(n5)N3)C(C)(C)C4)nc2)CC1 (stereo partly drawn) [Compound 201, (14S)-8-tert-butyl-12,12-dimethyl-17-[5-(4-methylpiperazin-1-yl)pyridin-2-yl]-2λ^6-thia-3,9,11,18,23-pentaazatetracyclo[17.3.1.111,14.05,10]tetracosa-1(23),5(10),6,8,19,21-hexaene-2,2,4-trione]
  Corrector Assay A % activity: +++ (+++ is >60%)
  EC50: < 1000 nM

## CC(C)(C)c1ccc2c(n1)N1C[C@@H](CC[C@@H](c3cccc(CN)n3)Nc3cccc(n3)S(=O)(=O)NC2=O)CC1(C)C [Compound 202]
  Corrector Assay A % activity: ++ (++ is 30-60%)
  EC50: < 1000 nM

## CC(C)(C)c1ccc2c(n1)N1C[C@@H](CC[C@H](c3cccc(CN)n3)Nc3cccc(n3)S(=O)(=O)NC2=O)CC1(C)C [Compound 203, (14S,17R)-17-[6-(aminomethyl)pyridin-2-yl]-8-tert-butyl-12,12-dimethyl-2λ^6-thia-3,9,11,18,23-pentaazatetracyclo[17.3.1.111,14.05,10]tetracosa-1(22),5,7,9,19(23),20-hexaene-2,2,4-trione]
  Corrector Assay A % activity: +++ (+++ is >60%)
  EC50: < 1000 nM

## CC(C)(C)c1ccc2c(n1)N1C[C@@H](CCC(c3ccc(C#N)cn3)Nc3cccc(n3)S(=O)(=O)NC2=O)CC1(C)C (stereo partly drawn) [Compound 204]
  Corrector Assay A % activity: +++ (+++ is >60%)
  EC50: < 1000 nM

## CC(C)(C)c1ccc2c(n1)N1C[C@@H](CC[C@@H](c3cccc(C#N)n3)Nc3cccc(n3)S(=O)(=O)NC2=O)CC1(C)C [Compound 210]
  Corrector Assay A % activity: ++ (++ is 30-60%)
  EC50: < 1000 nM

## CC(C)(C)c1ccc2c(n1)N1C[C@@H](CC[C@H](c3cccc(C#N)n3)Nc3cccc(n3)S(=O)(=O)NC2=O)CC1(C)C [Compound 211, 6-[(14S,17R)-8-tert-Butyl-12,12-dimethyl-2,2,4-trioxo-2λ^6-thia-3,9,11,18,23-pentaazatetracyclo[17.3.1.111,14.05,10]tetracosa-1(22),5,7,9,19(23),20-hexaen-17-yl]pyridine-2-carbonitrile]
  Corrector Assay A % activity: +++ (+++ is >60%)
  EC50: < 1000 nM

## CC(C)(C)c1ccc2c(n1)N1C[C@@H](CCC(C3CCN(c4ncccn4)CC3)Nc3cccc(n3)S(=O)(=O)NC2=O)CC1(C)C (stereo partly drawn) [Compound 218, (14S)-8-tert-butyl-12,12-dimethyl-17-[1-(pyrimidin-2-yl)piperidin-4-yl]-2λ^6-thia-3,9,11,18,23-pentaazatetracyclo[17.3.1.111,14.05,10]tetracosa-1(23),5(10),6,8,19,21-hexaene-2,2,4-trione]
  Corrector Assay A % activity: ++ (++ is 30-60%)
  EC50: < 1000 nM

## COCCN1CCC2(CC1)CC(NC(=O)[C@@H]1CC[C@@H]3CN(c4nc(C(C)(C)C)ccc4C(=O)NS(=O)(=O)c4cccc(n4)N1)C(C)(C)C3)C2 [Compound 221]
  Corrector Assay A % activity: + (+ is <30%)
  EC50: > 3000 nM

## CC(C)(C)c1ccc2c(n1)N1C[C@@H](CC[C@@H](C(=O)NC3CC4(CCNCC4)C3)Nc3cccc(n3)S(=O)(=O)NC2=O)CC1(C)C [Compound 223]
  Corrector Assay A % activity: + (+ is <30%)

## CC(C)(C)OC(=O)N1CCC2(CC1)CC(NC(=O)[C@@H]1CC[C@@H]3CN(c4nc(C(C)(C)C)ccc4C(=O)NS(=O)(=O)c4cccc(n4)N1)C(C)(C)C3)C2 [Compound 227]
  Corrector Assay A % activity: + (+ is <30%)
  EC50: 1000 to 3000 nM

## CC(=O)N1CCC(C2CC[C@@H]3CN(c4nc(C(C)(C)C)ccc4C(=O)NS(=O)(=O)c4cccc(n4)N2)C(C)(C)C3)CC1 (stereo partly drawn) [Compound 228, (14S)-17-(1-Acetylpiperidin-4-yl)-8-tert-butyl-12,12-dimethyl-2λ^6-thia-3,9,11,18,23-pentaazatetracyclo[17.3.1.111,14.05,10]tetracosa-1(23),5(10),6,8,19,21-hexaene-2,2,4-trione]
  Corrector Assay A % activity: ++ (++ is 30-60%)
  EC50: < 1000 nM

## CN(C)CC(=O)N1CCC(C2CC[C@@H]3CN(c4nc(C(C)(C)C)ccc4C(=O)NS(=O)(=O)c4cccc(n4)N2)C(C)(C)C3)CC1 (stereo partly drawn) [Compound 236, (14S)-8-tert-butyl-17-{1-[2-(dimethylamino)acetyl]piperidin-4-yl}-12,12-dimethyl-2λ^6-thia-3,9,11,18,23-pentaazatetracyclo[17.3.1.111,14.05,10]tetracosa-1(23),5(10),6,8,19,21-hexaene-2,2,4-trione]
  Corrector Assay A % activity: ++ (++ is 30-60%)
  EC50: 1000 to 3000 nM

## CC(C)(C)c1ccc2c(n1)N1C[C@@H](CCC(C3CCN(CCC(F)(F)F)CC3)Nc3cccc(n3)S(=O)(=O)NC2=O)CC1(C)C (stereo partly drawn) [Compound 238, (14S)-8-tert-butyl-12,12-dimethyl-17-[1-(3,3,3-trifluoropropyl)piperidin-4-yl]-2λ^6-thia-3,9,11,18,23-pentaazatetracyclo[17.3.1.111,14.05,10]tetracosa-1(23),5(10),6,8,19,21-hexaene-2,2,4-trione]
  Corrector Assay A % activity: ++ (++ is 30-60%)
  EC50: < 1000 nM

## CC1(C)C[C@@H]2CC[C@H](c3ccccn3)Nc3cccc(n3)S(=O)(=O)NC(=O)c3ccc(Br)nc3N1C2 [Compound 246, (14S,17R)-8-bromo-12,12-dimethyl-17-(pyridin-2-yl)-2λ^6-thia-3,9,11,18,23-pentaazatetracyclo[17.3.1.111,14.05,10]tetracosa-1(22),5,7,9,19(23),20-hexaene-2,2,4-trione]
  Corrector Assay A % activity: ++ (++ is 30-60%)
  EC50: < 1000 nM

## CC1(C)C[C@@H]2CC[C@@H](c3ccccn3)Nc3cccc(n3)S(=O)(=O)NC(=O)c3ccc(Br)nc3N1C2 [Compound 247, (14S,17S)-8-bromo-12,12-dimethyl-17-(pyridin-2-yl)-2λ^6-thia-3,9,11,18,23-pentaazatetracyclo[17.3.1.111,14.05,10]tetracosa-1(22),5,7,9,19(23),20-hexaene-2,2,4-trione]
  Corrector Assay A % activity: + (+ is <30%)
  EC50: < 1000 nM

## CN1c2cccc(n2)S(=O)(=O)NC(=O)c2ccc(C(C)(C)C)nc2N2C[C@@H](CC[C@H]1c1ccccc1)CC2(C)C [Compound 262]
  Corrector Assay A % activity: +++ (+++ is >60%)
  EC50: < 1000 nM

## CC(C)(C)c1ccnc([C@H]2CC[C@@H]3CN(c4nc(-c5cccc(OCCC6CC6)n5)ccc4C(=O)NS(=O)(=O)c4cccc(n4)N2)C(C)(C)C3)c1 [Compound 301, (14S,17R)-17-(4-tert-butylpyridin-2-yl)-8-[6-(2-cyclopropylethoxy)pyridin-2-yl]-12,12-dimethyl-2λ^6-thia-3,9,11,18,23-pentaazatetracyclo[17.3.1.111,14.05,10]tetracosa-1(22),5,7,9,19(23),20-hexaene-2,2,4-trione]
  Corrector Assay A % activity: +++ (+++ is >60%)
  EC50: < 1000 nM

## CC(C)(C)c1ccnc([C@H]2CC[C@@H]3CN(c4nc(-c5cccc(OCC6CCC6)n5)ccc4C(=O)NS(=O)(=O)c4cccc(n4)N2)C(C)(C)C3)c1 [Compound 302, (14S,17R)-17-(4-tert-butylpyridin-2-yl)-8-[6-(cyclobutylmethoxy)pyridin-2-yl]-12,12-dimethyl-2λ^6-thia-3,9,11,18,23-pentaazatetracyclo[17.3.1.111,14.05,10]tetracosa-1(22),5,7,9,19(23),20-hexaene-2,2,4-trione]
  Corrector Assay A % activity: +++ (+++ is >60%)
  EC50: < 1000 nM

## CC(C)(C)CCOc1cccc(-c2ccc3c(n2)N2C[C@@H](CC[C@H](c4cc(C(C)(C)C)ccn4)Nc4cccc(n4)S(=O)(=O)NC3=O)CC2(C)C)n1 [Compound 303, (14S,17R)-17-(4-tert-butylpyridin-2-yl)-8-[6-(3,3-dimethylbutoxy)pyridin-2-yl]-12,12-dimethyl-2λ^6-thia-3,9,11,18,23-pentaazatetracyclo[17.3.1.111,14.05,10]tetracosa-1(22),5,7,9,19(23),20-hexaene-2,2,4-trione]
  Corrector Assay A % activity: +++ (+++ is >60%)
  EC50: < 1000 nM

## CC(C)(C)CCOc1cccc(-c2ccc3c(n2)N2C[C@@H](CC[C@H](c4cccc(C(F)(F)F)n4)Nc4cccc(n4)S(=O)(=O)NC3=O)CC2(C)C)n1 [Compound 304, (14S,17R)-8-[6-(3,3-dimethylbutoxy)pyridin-2-yl]-12,12-dimethyl-17-[6-(trifluoromethyl)pyridin-2-yl]-2λ^6-thia-3,9,11,18,23-pentaazatetracyclo[17.3.1.111,14.05,10]tetracosa-1(22),5,7,9,19(23),20-hexaene-2,2,4-trione]
  Corrector Assay A % activity: ++ (++ is 30-60%)
  EC50: < 1000 nM
